Legend:
major crops = test: Pre-emergence test experiment (crops); format: in vivo; set-up: key: 9: completely dead; 8: growth control rate is greater than or equal to 90% and less than 100%; 7: growth control rate is greater than or equal to 80% and less than 90%; 6: growth control rate is greater than or equal to 70% and less than 80%; growth control rate is greater than or equal to 50% and less than 70%; 4: growth control rate is greater than or equal to 30% and less than 50%; growth control rate is greater than or equal to 20% and less than 30%; growth control rate is greater than or equal to 10% and less than 20%; growth control rate is less than 10%; 0: no effect; conditions: 30 g a.i./ha
[1] = tested on: monocotyledonous and dicotyledonous weeds; test: Pre-emergence test experiment (weeds); format: in vivo; set-up: key: 9: completely dead; 8: growth control rate is greater than or equal to 90% and less than 100%; 7: growth control rate is greater than or equal to 80% and less than 90%; 6: growth control rate is greater than or equal to 70% and less than 80%; growth control rate is greater than or equal to 50% and less than 70%; 4: growth control rate is greater than or equal to 30% and less than 50%; growth control rate is greater than or equal to 20% and less than 30%; growth control rate is greater than or equal to 10% and less than 20%; growth control rate is less than 10%; 0: no effect; conditions: 30 g a.i./ha

SMILES	Pre-emergence plant damage level (growth control rate) on Corn (major crops)	Pre-emergence plant damage level (growth control rate) on Cotton (major crops)	Pre-emergence plant damage level (growth control rate) on Soybean (major crops)	Pre-emergence activity level (growth control rate) on Amaranthus retroflexus [1]	Pre-emergence activity level (growth control rate) on Descurainia sophia [1]	Pre-emergence activity level (growth control rate) on Digitaria sanguinalis [1]	Pre-emergence activity level (growth control rate) on Setaria viridis [1]	Pre-emergence activity level (growth control rate) on Solanum nigrum [1]	Pre-emergence activity level (growth control rate) on Veronica [1]
CCc1ccc(-n2cnc(C(F)F)n2)nc1Oc1cncc(C(F)(F)F)c1 [Compound 74]	0	0	0	9	9	9	8 (growth control rate is greater than or equal to 90% and less than 100%)	9	9
N#Cc1cc(Oc2cccc(C(F)(F)F)c2)nc(-n2cnc(C(F)(F)F)n2)c1 [Compound 2]	0	0	0	9	9	8 (growth control rate is greater than or equal to 90% and less than 100%)	8 (growth control rate is greater than or equal to 90% and less than 100%)	9	9
COCc1ccc(-n2cnc(C(F)(F)F)n2)nc1Oc1cccc(OC(F)F)c1 [Compound 148]	0	0	0	9	9	8 (growth control rate is greater than or equal to 90% and less than 100%)	9	9	9
COCc1ccc(-n2cnc(C(F)(F)C(F)(F)F)n2)nc1Oc1cncc(C(F)(F)F)c1 [Compound 140]	0	0	0		9	8 (growth control rate is greater than or equal to 90% and less than 100%)	9	9	9
CCCc1ccc(-n2cnc(C(F)(F)F)n2)nc1Oc1cccc(C(F)(F)F)c1 [Compound 21]	0	0	0	9	9	8 (growth control rate is greater than or equal to 90% and less than 100%)	8 (growth control rate is greater than or equal to 90% and less than 100%)	7 (growth control rate is greater than or equal to 80% and less than 90%)	9
Cc1ccc(-n2cnc(C(F)(F)C(F)(F)F)n2)nc1Oc1cccc(OC(F)(F)F)c1 [Compound 65]	0	0	0		9	9	9		
Cc1cc(Oc2cncc(C(F)(F)F)c2)nc(-n2cnc(C(F)(F)F)n2)c1 [Compound 6]	0	0	0	9	9	9	9	9	9
CCc1ccc(-n2cnc(C(F)F)n2)nc1Oc1cccc(OC(F)(F)F)c1 [Compound 73]	0	0	0	9	9	8 (growth control rate is greater than or equal to 90% and less than 100%)	8 (growth control rate is greater than or equal to 90% and less than 100%)	9	9
Cc1ccc(-n2cnc(C(F)(F)C(F)(F)F)n2)nc1Oc1cncc(C(F)(F)F)c1 [Compound 15]	0	0	0	9	9	8 (growth control rate is greater than or equal to 90% and less than 100%)	9	8 (growth control rate is greater than or equal to 90% and less than 100%)	9
COCc1ccc(-n2cnc(C(F)(F)F)n2)nc1Oc1cccc(OC(F)(F)F)c1 [Compound 145]	0	0	0	9	9	9	9	9	9
Cc1ccc(-n2cnc(C(F)(F)C(F)(F)F)n2)nc1Oc1cccc(C(F)(F)F)c1 [Compound 14]	0	0	0	9	9	8 (growth control rate is greater than or equal to 90% and less than 100%)	9	9	9
Cc1ccc(-n2cnc(C(F)F)n2)nc1Oc1ccc(F)c(C(F)(F)F)c1 [Compound 70]	0	0	0	9	9	9	9	9	9
COc1cc(Oc2cccc(OC(F)(F)F)c2)nc(-n2cnc(C(F)F)n2)c1 [Compound 67]	0	0	0	9	9	7 (growth control rate is greater than or equal to 80% and less than 90%)	7 (growth control rate is greater than or equal to 80% and less than 90%)		9
COCc1ccc(-n2cnc(C(F)(F)F)n2)nc1Oc1ccc(F)c(OC(F)(F)F)c1 [Compound 146]	0	0	0	9	9	8 (growth control rate is greater than or equal to 90% and less than 100%)	9	9	9
CCc1ccc(-n2cnc(C(F)(F)F)n2)nc1Oc1cccc(OC(F)(F)F)c1 [Compound 71]	0	0	0	9	9	9	9	9	9

From patent US20260305610A1, “TRIAZOLE COMPOUND, AND PREPARATION METHOD THEREFOR, HERBICIDAL COMPOSITION AND USE THEREOF” (QINGDAO KINGAGROOT CHEMICAL COMPOUND CO., LTD., priority 2023, published 2026)
